Assay results from US20180353461A1, “USE OF CANNABINOIDS AS CERAMIDE-GENERATING ANTICANCER AGENTS IN TUMORS OF THE HEMATOPOIETIC AND LYMPHOID TISSUES” (priority 2014, published 2018).

Key:
Format in all cases: cell-based, human
[1] = tested on: MM cell lines MM1.S, MM1.R, RPMI-8226 (RPMI) and U266; assay: Cell viability of MM cell lines (MTT / WST-8 assay); conditions: 18 h; for cell viability of all MM cell lines tested as compared to untreated control cells: WIN-55 0.5-50 uM, JWH-133 0.05-1 mM
Text: (§1) Human multiple myeloma cell lines MM1.S, MM1.R, RPMI-8226 (RPMI) and U266 were purchased from American Type Culture Collection [(ATCC), LGC Standards, Manassas, USA]. Human primary cells were obtained from MM patients' bone marrow (BM) and healthy donors' peripheral blood (PB). PB samples were collected from buffy coats and leukapheresis products, previously mobilized with granulocyte colony stimulating factor (G-CSF). Hematopoietic progenitor cells (CD34+) were isolated from leukaphesesis samples, and B (CD19+) and T (CD3+) lymphocytes from buffy coats by positive immunomagnetic separation in the AutoMACS pro separator (Miltenyi Biotec, Bergisch Gladbach, Germany). For this purpose CD34-, CD19- and CD3-MACS microbead Human Kit (Miltenyi Biotec, Bergisch Gladbach, Germany). The purity of all isolated cells was higher than 95% in all cases. BM samples were obtained from five MM patients. In all cases, BM plasma cell infiltration was greater than 30%. The different cell subpopuplations from MM patients BM were not separated, but they were identified by flow cytometry using a suitable combination of antibodies: anti-CD64-FITC, anti-CD34-PE, anti-CD56-APC, anti-CD38-APC-H7, and anti-CD45-Pacific Blue (BD Biosciences, San Jose, Calif.).
Except if otherwise indicated, for the viability assays primary cells were incubated 18 hours, with vehicle (with <0.15% DMSO) or cannabinoid. Meanwhile, the time course assays cells were performed at 0, 2, 6, 18 and 24 h. For the analysis of SPT activity, cells were co-incubated for the first 6 hours with the SPT inhibitor, myriocin, and the cannabinoid, WIN-55 or JWH-133.
The working concentrations of cannabinoids were determined by dose-response curves (data not shown) and selected within the linear range between observed safe and hazardous levels. […]
Cell viability of cell lines and CD34+, CD19+ and CD3+ cells was measured using the Cell Counting Kit-8 (Dojindo Molecular Technologies, Gaithersburg, Md.). This assay is based on the reduction of salt WST-8 by a mitochondrial dehydrogenase in viable cells, resulting in a colored formazan product that can be measured spectrometrically at 450 nm. […] After treatment, 10 ul salt WST-8 [2-(4-lodophenyl)-3-(4-nitrophenyl)-5-(2,4-disulfophenyl)-2H-tetrazolium] was added to each well and incubated for an additional 2 h at 37° C., and then the absorbance of generated formazan was measured in a plate reader Multiskan™ Go Microplate (Thermo Fisher Scientific, Waltham, Mass., USA).
Firstly, we assessed the effect of cannabinoids WIN-55 and JWH-133 on cell viability. To this end, the cells were treated with increasing concentrations of cannabinoids, WIN-55 (0.5-50 uM) and JWH-133 (0.05-1 mM), for 18, 48 and 96 hours, and viability was analyzed by MTT assays and flow cytometry. […]

[2] = tested on: myeloma plasma cells (MPCs); assay: Ex vivo viability of myeloma plasma cells from bone marrow of MM patients (flow cytometry, 7-AAD)
Text: as §1, with “BM samples were obtained from five MM patients. In all cases, BM plasma cell infiltration was greater than 30%. The different cell subpopuplations from MM patients BM were not separated, but they were identified by flow cytometry using a suitable combination of antibodies: anti-CD64-FITC, anti-CD34-PE, anti-CD56-APC, anti-CD38-APC-H7, and anti-CD45-Pacific Blue (BD Biosciences, San Jose, Calif.).” left out
(§2) Further, cell viability of bone marrow cell populations from patients was assessed by flow cytometry using 7-amino-actinomycin D [(7-AAD), BD Biosciences] together with a combination of monoclonal antibodies against myeloma-associated antigens (anti-CD56-APC, anti-CD45-Pacific Blue, and anti-CD38-APC-H7 [BD Biosciences]) and antibodies to discriminate the granulomonocytic (anti-CD64-FITC) and lymphocytic (anti-CD45-Pacific Blue) populations. […] Fluorescent intensity was quantified and analyzed using Infinicyt™ Software (Cytognos, Salamanca, Spain). […]

[3] = tested on: hematopoietic stem cells (CD34+); assay: Cell viability of CD34+ hematopoietic stem cells from healthy donors (MTT); conditions: any tested dose
[4] = tested on: Granulocytes; assay: Viability of normal residual granulocytes in bone marrow samples of MM patients (flow cytometry); conditions: all doses tested
Text: as §1, with “BM samples were obtained from five MM patients. In all cases, BM plasma cell infiltration was greater than 30%. The different cell subpopuplations from MM patients BM were not separated, but they were identified by flow cytometry using a suitable combination of antibodies: anti-CD64-FITC, anti-CD34-PE, anti-CD56-APC, anti-CD38-APC-H7, and anti-CD45-Pacific Blue (BD Biosciences, San Jose, Calif.).” left out
as §2

[5] = tested on: lymphocytes; assay: Viability of normal residual lymphocytes in bone marrow samples of MM patients (flow cytometry); conditions: for viability of lymphocytes: all doses except the highest dose tested; for dose at which lymphocytes were affected (highest dose tested): bone marrow of MM patients
Text: as §1
Further, cell viability of bone marrow cell populations from patients was assessed by flow cytometry using 7-amino-actinomycin D [(7-AAD), BD Biosciences] together with a combination of monoclonal antibodies against myeloma-associated antigens (anti-CD56-APC, anti-CD45-Pacific Blue, and anti-CD38-APC-H7 [BD Biosciences]) and antibodies to discriminate the granulomonocytic (anti-CD64-FITC) and lymphocytic (anti-CD45-Pacific Blue) populations. Cells were incubated for 15 minutes at room temperature in the dark with suitable antibodies and 7-AAD, and after washing a total of 100 000 cells were acquired on FACSCanto II flow cytometer (BD Biosciences). Fluorescent intensity was quantified and analyzed using Infinicyt™ Software (Cytognos, Salamanca, Spain). Additionally, cell viability of MM cell lines and the peripheral blood CD34+, CD3+ and CD19+ cell populations from healthy donors was also analyzed by flow cytometry using 7-AAD, with the same protocol above described.
Once determined the antiproliferative effect of cannabinoids on tumor cells, both primary and cell lines, our aim was to test whether or not these drugs could also affect the viability of the counterpart normal cells, both normal residual populations from bone marrow samples obtained from MM patients as well as hematopoietic stem cells (CD34+) from healthy donors. […] Granulocytes and lymphocytes, were also unaffected by both cannabinoids, except for the lymphocytes at the highest doses tested, 50 uM for WIN-55 and 1 mM for JWH-133 (FIG. 2a,b).

[6] = tested on: T-cells (CD3+); assay: Cell viability of T-cells (MTT)
[7] = tested on: blasts from AML patients; assay: Cell viability of blasts from AML patients (MTT)

| Structure (SMILES) | sensitivity pattern of the MM cell lines [1] | cell viability of all MM cell lines tested as compared to untreated control cells [1] | viability of MPCs ([2]; less pronounced as compared to WIN-55) | cell viability of hematopoietic stem cells (CD34+) [3] | viability of granulocytes [4] | viability of lymphocytes [5] | dose at which lymphocytes were affected (highest dose tested) [5] [mM] | viability of T-cells [6] | cell viability of blasts from AML patients [7] | decrease in cell viability of MPCs as compared to control (vehicle-treated) cells ([2]; 50 uM, bone marrow of MM patients) |
| --- | --- | --- | --- | --- | --- | --- | --- | --- | --- | --- |
| CCCC(C)(C)c1ccc2c(c1)OC(C)(C)[C@@H]1CC=C(C)C[C@@H]21 [JWH-133, (6aR,10aR)-3-(1,1-Dimethylbutyl)-6a,7,10,10a-tetrahydro-6,6,9-trimethyl-6H-dibenzo [b,d] pyran] | decreasing from MM1.R, RPMI, MM1.S to U266 | significantly reduced | decreased viability | remained unaffected | unaffected | unaffected | 1 | remained unaffected | reduce the cell viability |  |
| CS(=O)(=O)O.Cc1c(C(=O)c2cccc3ccccc23)c2cccc3c2n1[C@H](CN1CCOCC1)CO3 [WIN-55, (R)-(+)-[2,3-dihydro-5-methyl-3-(4-morpholinylmethyl)-pyrrolo-[1,2,3]-1,4-benzoxazin-6-yl]-1-naphthalenylmethanone mesylate] | MM1R and RPMI were the most sensitive | significantly reduced |  | remained unaffected | unaffected | unaffected | 0.05 | remained unaffected | reduce the cell viability | up to 85% |
